Results taken from the supplement of paper PMC9262897, “Low-cost anti-mycobacterial drug discovery using engineered E. coli” (Nature Communications, 2022).

Legend:
E. coli TESEC Mtb Alr = assay: growth (OD600 after 10 h, mean); higher = more growth;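 further: E. coli lacking its native Alr, complemented by codon-optimized Mtb Alr under a feedback-controlled arabinose-inducible plasmid circuit, grown in defined medium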
Experimental: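 TESEC Mtb Alr E. coli grown in a two-dimensional dilution series of drug (µM) and arabinose (12 to 1e8 nM). Growth is read as OD600 after 10 h; values are means of 3 biological replicates.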

∆tolC ∆entC = assay: growth (OD600 after 24 h); higher = more growth
Experimental: (§1)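 E. coli BW25113 ΔaraC (Efflux+) or efflux-pump deletion strains (ΔtolC ΔentC, ΔemrE, ΔmdtI, ΔyeeO, ΔmdtK, ΔmdtM) diluted 1:100 in M9-based medium with a drug dilution series. Growth is read as OD600 after 24 h; 3 biological replicates.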

∆mdtM = assay: growth (OD600 after 24 h); higher = more growth
Experimental: as §1

∆emrE = assay: growth (OD600 after 24 h); higher = more growth
Experimental: as §1

∆yeeO = assay: growth (OD600 after 24 h); higher = more growth
Experimental: as §1

Efflux+ = assay: growth (OD600 after 24 h); higher = more growth
Experimental: as §1

∆mdtK = assay: growth (OD600 after 24 h); higher = more growth
Experimental: as §1

∆mdtI = assay: growth (OD600 after 24 h); higher = more growth
Experimental: as §1

CCOC(=O)[C@H](CCc1ccccc1)N[C@H]1CCc2ccccc2N(CC(=O)O)C1=O [Benazepril]
growth, E. coli TESEC Mtb Alr
Conditions | drug 15.62 µM | drug 31.25 µM | drug 62.5 µM | drug 125 µM | drug 250 µM
arabinose 12 nM | 0.354 | 0.343 | 0.321 | 0.279 | –
arabinose 24 nM | 0.338 | 0.339 | 0.326 | 0.285 | –
arabinose 48 nM | 0.334 | 0.332 | 0.33 | 0.275 | –
arabinose 95 nM | 0.343 | 0.334 | 0.309 | 0.279 | –
arabinose 191 nM | 0.341 | 0.34 | 0.308 | 0.275 | –
arabinose 381 nM | 0.338 | 0.325 | 0.309 | 0.274 | –
arabinose 763 nM | 0.337 | 0.322 | 0.304 | 0.278 | –
arabinose 1526 nM | 0.333 | 0.322 | 0.305 | 0.275 | 0.185
arabinose 3052 nM | 0.338 | 0.326 | 0.308 | 0.279 | 0.183
arabinose 6104 nM | 0.337 | 0.334 | 0.303 | 0.277 | 0.187
arabinose 12207 nM | 0.353 | 0.332 | 0.312 | 0.288 | 0.186
arabinose 24414 nM | 0.352 | 0.348 | 0.309 | 0.297 | –
arabinose 48828 nM | 0.367 | 0.393 | 0.396 | 0.359 | –
arabinose 97656 nM | 0.451 | 0.462 | 0.394 | 0.376 | –
arabinose 195312 nM | 0.429 | 0.42 | 0.387 | 0.327 | –
arabinose 390625 nM | 0.344 | 0.35 | 0.346 | 0.289 | –
arabinose 781250 nM | 0.311 | 0.307 | 0.306 | 0.281 | –
arabinose 1562500 nM | 0.295 | 0.287 | 0.286 | 0.269 | –
arabinose 3125000 nM | 0.274 | 0.267 | 0.268 | 0.255 | –
arabinose 6250000 nM | 0.267 | 0.273 | 0.273 | 0.256 | –
arabinose 12500000 nM | 0.263 | 0.266 | 0.256 | 0.256 | –
arabinose 25000000 nM | 0.259 | 0.258 | 0.252 | 0.244 | –
arabinose 50000000 nM | 0.246 | 0.245 | 0.244 | 0.243 | –
arabinose 100000000 nM | 0.239 | 0.231 | 0.23 | 0.227 | –

growth
Conditions | Efflux+ | ∆emrE | ∆mdtI | ∆mdtK | ∆mdtM | ∆tolC ∆entC | ∆yeeO
drug 62.5 µM | 1.02 | 1.18 | 0.992 | 0.937 | 0.822 | 0.756 | 0.887
drug 125 µM | 0.974 | 1.16 | 0.978 | 1.04 | 0.832 | 0.791 | 0.894
drug 250 µM | 0.962 | 1.09 | 0.979 | 1 | 0.807 | 0.8136 | 0.895
drug 500 µM | 0.969 | 1.08 | 0.983 | 1.01 | 0.827 | 0.8286 | 0.901
drug 1000 µM | 0.977 | 1.065 | 1 | 0.974 | 0.835 | 0.0672 | 0.91
drug 2000 µM | 1 | 1.14 | 1.009 | 0.856 | 0.833 | 0.0535 | 0.882
